{"source": "PubChem BioAssay AID248", "about": "(DTP/NCI, 2004)", "test_system": "L1210 leukemia ip in BDF1 mice, survival T/C", "assay": "NCI In Vivo Anticancer Drug Screen. Data for tumor model L1210 Leukemia (intraperitoneal) in B6D2F1 (BDF1) mice", "settings": "endpoint: mean survival time, higher = longer survival", "how_it_was_run": "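Transplantable tumor model; survival measured in treated vs vehicle control mice. Value = treated/control.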", "key": {"[1]": {"settings": "dose: 100.0 mg/kg/injection, schedule: Q04DX003 (ip), vehicle: Klucel (hydroxypropylcellulose) (HPC)"}, "[2]": {"settings": "dose: 200.0 mg/kg/injection, schedule: Q04DX003 (ip), vehicle: Klucel (hydroxypropylcellulose) (HPC)"}, "[3]": {"settings": "dose: 400.0 mg/kg/injection, schedule: Q04DX003 (ip), vehicle: Klucel (hydroxypropylcellulose) (HPC)"}}, "note": "Several values for one entry are separate records, joined by “and”; a condition that tells them apart may be missing. Identical values can stand only once. Inconclusive results and toxic doses are left out.", "data": [{"smiles": "NC1CCCCCCC1O", "note": "(stereo not given)", "values": [{"measurement": "T/C", "setting": "dose: 5.0 mg/kg/injection, schedule: Q01DX009 (ip), vehicle: saline with Tween-80", "value": "105 % of control"}, {"measurement": "T/C", "setting": "dose: 10.0 mg/kg/injection, schedule: Q01DX009 (ip), vehicle: saline with Tween-80", "value": "94 % of control"}, {"measurement": "T/C", "setting": "dose: 20.0 mg/kg/injection, schedule: Q01DX009 (ip), vehicle: saline with Tween-80", "value": "100 % of control"}]}, {"smiles": "O=C(CS(=O)(=O)Cc1ccccc1)c1ccccc1", "values": [{"measurement": "T/C", "setting": "[1]", "value": "98 % of control"}, {"measurement": "T/C", "setting": "[2]", "value": "98 % of control"}, {"measurement": "T/C", "setting": "[3]", "value": "101 % of control"}]}, {"smiles": "CCOC(=O)c1nc(NC)sc1N", "values": [{"measurement": "T/C", "setting": "dose: 12.5 mg/kg/injection, schedule: Q01DX009 (ip), vehicle: saline", "value": "98 % of control"}, {"measurement": "T/C", "setting": "dose: 25.0 mg/kg/injection, schedule: Q01DX009 (ip), vehicle: saline", "value": "104 % of control"}, {"measurement": "T/C", "setting": "dose: 50.0 mg/kg/injection, schedule: Q01DX009 (ip), vehicle: saline", "value": "97 % of control and 98 % of control"}, {"measurement": "T/C", "setting": "dose: 100.0 mg/kg/injection, schedule: Q04DX003 (ip), vehicle: saline", "value": "102 % of control"}, {"measurement": "T/C", "setting": "dose: 200.0 mg/kg/injection, schedule: Q04DX003 (ip), vehicle: saline", "value": "100 % of control"}]}, {"smiles": "CCOC(=O)c1ccc(C(=O)OCC)c(C#N)n1", "values": [{"measurement": "T/C", "setting": "dose: 100.0 mg/kg/injection, schedule: Q01DX009 (ip), vehicle: Klucel (hydroxypropylcellulose) (HPC)", "value": "102 % of control"}, {"measurement": "T/C", "setting": "[1]", "value": "100 % of control"}, {"measurement": "T/C", "setting": "dose: 200.0 mg/kg/injection, schedule: Q01DX009 (ip), vehicle: Klucel (hydroxypropylcellulose) (HPC)", "value": "97 % of control"}, {"measurement": "T/C", "setting": "[2]", "value": "93 % of control"}, {"measurement": "T/C", "setting": "[3]", "value": "95 % of control"}]}, {"smiles": "CNC(=O)C(c1ccccc1)C(F)(F)F", "note": "(stereo not given)", "values": [{"measurement": "T/C", "setting": "dose: 100.0 mg/kg/injection, schedule: Q01DX001 (ip), vehicle: saline with Tween-80", "value": "97 % of control"}, {"measurement": "T/C", "setting": "dose: 200.0 mg/kg/injection, schedule: Q01DX001 (ip), vehicle: saline with Tween-80", "value": "109 % of control"}, {"measurement": "T/C", "setting": "dose: 400.0 mg/kg/injection, schedule: Q01DX001 (ip), vehicle: saline with Tween-80", "value": "105 % of control"}]}, {"smiles": "CC(C)C(=O)[O][Sn]([CH3])([CH3])[CH3]", "values": [{"measurement": "T/C", "setting": "dose: 0.19 mg/kg/injection, schedule: Q01DX009 (ip), vehicle: Klucel (hydroxypropylcellulose) (HPC)", "value": "90 % of control"}, {"measurement": "T/C", "setting": "dose: 0.39 mg/kg/injection, schedule: Q01DX009 (ip), vehicle: Klucel (hydroxypropylcellulose) (HPC)", "value": "95 % of control"}, {"measurement": "T/C", "setting": "dose: 0.78 mg/kg/injection, schedule: Q01DX009 (ip), vehicle: Klucel (hydroxypropylcellulose) (HPC)", "value": "93 % of control and 106 % of control"}, {"measurement": "T/C", "setting": "dose: 0.78 mg/kg/injection, schedule: Q04DX002 (ip), vehicle: Klucel (hydroxypropylcellulose) (HPC)", "value": "95 % of control"}, {"measurement": "T/C", "setting": "dose: 1.56 mg/kg/injection, schedule: Q04DX002 (ip), vehicle: Klucel (hydroxypropylcellulose) (HPC)", "value": "100 % of control"}, {"measurement": "T/C", "setting": "dose: 3.12 mg/kg/injection, schedule: Q04DX002 (ip), vehicle: Klucel (hydroxypropylcellulose) (HPC)", "value": "103 % of control"}]}, {"smiles": "CC(=O)NC1CCCCC1c1ccc(C2CCCCC2NC(C)=O)cc1", "note": "(stereo not given)", "values": [{"measurement": "T/C", "setting": "dose: 100.0 mg/kg/injection, schedule: Q01DX001 (ip), vehicle: saline", "value": "98 % of control"}, {"measurement": "T/C", "setting": "dose: 200.0 mg/kg/injection, schedule: Q01DX001 (ip), vehicle: saline", "value": "98 % of control"}]}, {"smiles": "CC(C)(C)NC(=O)C(Br)c1ccccc1", "note": "(stereo not given)", "values": [{"measurement": "T/C", "setting": "dose: 100.0 mg/kg/injection, schedule: Q04DX002 (ip), vehicle: saline with Tween-80", "value": "94 % of control"}, {"measurement": "T/C", "setting": "dose: 200.0 mg/kg/injection, schedule: Q04DX002 (ip), vehicle: saline with Tween-80", "value": "105 % of control"}, {"measurement": "T/C", "setting": "dose: 400.0 mg/kg/injection, schedule: Q04DX002 (ip), vehicle: saline with Tween-80", "value": "94 % of control"}]}, {"smiles": "On1cnc(=S)c2[nH]cnc21", "values": [{"measurement": "T/C", "setting": "dose: 100.0 mg/kg/injection, schedule: Q01DX001 (ip), vehicle: carboxymethylcellulose (CMC)", "value": "98 % of control"}, {"measurement": "T/C", "setting": "dose: 200.0 mg/kg/injection, schedule: Q01DX001 (ip), vehicle: carboxymethylcellulose (CMC)", "value": "98 % of control"}, {"measurement": "T/C", "setting": "dose: 250.0 mg/kg/injection, schedule: Q01DX Z (ip), vehicle: carboxymethylcellulose (CMC)", "value": "112 % of control"}, {"measurement": "T/C", "setting": "dose: 400.0 mg/kg/injection, schedule: Q01DX001 (ip), vehicle: carboxymethylcellulose (CMC)", "value": "98 % of control"}, {"measurement": "T/C", "setting": "dose: 500.0 mg/kg/injection, schedule: Q01DX001 (ip), vehicle: carboxymethylcellulose (CMC)", "value": "100 % of control"}, {"measurement": "T/C", "setting": "dose: 750.0 mg/kg/injection, schedule: Q01DX001 (ip), vehicle: carboxymethylcellulose (CMC)", "value": "113 % of control"}, {"measurement": "T/C", "setting": "dose: 750.0 mg/kg/injection, schedule: Q01DX Z (ip), vehicle: carboxymethylcellulose (CMC)", "value": "156 % of control"}, {"measurement": "T/C", "setting": "dose: 1000.0 mg/kg/injection, schedule: Q01DX001 (ip), vehicle: carboxymethylcellulose (CMC)", "value": "117 % of control"}]}, {"smiles": "Sc1ccc(Cl)cc1.[Pb]", "values": [{"measurement": "T/C", "setting": "dose: 25.0 mg/kg/injection, schedule: Q01DX009 (ip), vehicle: gum acacia", "value": "94 % of control"}, {"measurement": "T/C", "setting": "dose: 25.0 mg/kg/injection, schedule: Q04DX002 (ip), vehicle: gum acacia", "value": "99 % of control"}, {"measurement": "T/C", "setting": "dose: 50.0 mg/kg/injection, schedule: Q01DX009 (ip), vehicle: gum acacia", "value": "94 % of control"}, {"measurement": "T/C", "setting": "dose: 50.0 mg/kg/injection, schedule: Q04DX002 (ip), vehicle: gum acacia", "value": "99 % of control"}, {"measurement": "T/C", "setting": "dose: 100.0 mg/kg/injection, schedule: Q04DX002 (ip), vehicle: gum acacia", "value": "96 % of control and 91 % of control"}, {"measurement": "T/C", "setting": "dose: 200.0 mg/kg/injection, schedule: Q04DX002 (ip), vehicle: gum acacia", "value": "102 % of control"}, {"measurement": "T/C", "setting": "dose: 400.0 mg/kg/injection, schedule: Q04DX002 (ip), vehicle: gum acacia", "value": "109 % of control"}]}]}
